Source: patent US11998566B1, “Method of synthesizing a silver nanoparticle composition using an extract of Salsola tetrandra” (KING FAISAL UNIVERSITY, priority 2023, dated 2024)

Legend:
[1] = test system: A. fumigatus; assay: time kill assay; format: cell-based, Aspergillus fumigatus; conditions: 50 μg/mL; exposure for 24 hours; FIG. 1
Protocol: FIG. 1 is a graph showing time-kill curves of A. fumigatus following exposure to ST-AgNPs and amphotericin B for 24 hours (values are expressed as means±SD)
(§1) Several preliminary in vitro experiments were performed to confirm the potent antifungal potential of the green biosynthesized silver nanoparticles (ST-AgNPs) against A. fumigatus. […] Additionally, the inhibitory effect of the antifungals AMB and ST-AgNPs was also examined using light microscopy (FIGS. 2A-2C).

[2] = test system: A. fumigatus; assay: light microscopy of mycelial growth / germination; format: cell-based, Aspergillus fumigatus; conditions: FIG. 2C
Protocol: FIGS. 2A-2C show differences in the mycelial growth of A. fumigatus in 2A) control 2B) following exposure to ST-AgNPs and 2C) following exposure to amphotericin B. (conventional antifungal agent).
as §1

C[C@@H]1[C@H](O)[C@@H](C)/C=C/C=C/C=C/C=C/C=C/C=C/C=C/[C@H](O[C@@H]2O[C@H](C)[C@@H](O)[C@H](N)[C@@H]2O)C[C@@H]2O[C@](O)(C[C@@H](O)C[C@@H](O)[C@H](O)CC[C@@H](O)C[C@@H](O)CC(=O)O[C@H]1C)C[C@H](O)[C@H]2C(=O)O [amphotericin B]
action on the growth of Aspergillus cells (time kill assay) [1]: fungistatic action
mycelial growth [2]: substantially reduced
